# Assay results taken from patent US20120258980A1, “Antibacterial Agent for Drug-Resistant Bacteria, Method for Screening for Same, and Use of Same” (priority 2009, published 2012).
# Structures can show the parent of a compound that is named as a salt. Where two headings read alike, the source gives them in different places.
# What was measured:
# VRSA clinical isolates = experiment: microbe, parasite or virus in culture; type: cell-based; conditions: Staphylococcus aureus
# Description: (§1) Each of the bacterial strains listed in Table 1-1 was shake-cultured at 37° C. overnight in 4 mL of a medium (Tryptical Soy Broth: TSB, product of Becton Dickinson and Company). FDA209P was used as a control.
# (§2) After completion of culturing, the resultant culture was suspended in a cation-adjusted Mueller Hinton Broth (CAMHB, product of Becton Dickinson and Company). Then, the obtained bacterial culture was adjusted in absorbance with the CAMHB so that the absorbance at 578 nm of the bacterial culture was adjusted to 0.3 measured by an absorption spectrometer. In addition, the resultant bacterial culture was 500-fold diluted with the CAMHB.
# (§3) Each of the 500-fold diluted, pre-cultured bacterial cultures was added at 50 μL/well to the CAMHB containing the quinolones and the nybomycins at various concentrations (50 μL/well), followed by statically culturing at 37° C. overnight.
# (§4) After completion of culturing, the growth of the bacteria was visually determined based on turbidity to measure MIC in each bacterial strain.
# Here, the glycopeptides used were VCM and TEIC. The β-lactam used was OXA.
# Enterococcus faecalis = experiment: MIC measurement, Test Example 6 (enterococcus); type: cell-based; conditions: for MIC: Enterococcus faecalis, read-out: MIC
# Description: as §1, §2, §3, §4
# Quinolones and nybomycins were evaluated for antibacterial activity against Enterococcus faecalis shown in Table 6, wherein the other strains than NCTC12201 and NCTC12203 were subdivided from Shionogi & Co., Ltd (note that these strains are available also from the Department of Bacteriology, Juntendo University). The NCTC strains are both vancomycin-resistant E. faecalis and available from the National Collection of Type Cultures (NCTC).
# [1] = test system: methicillin-susceptible S. aureus (MSSA), MRSA and mutants thereof; experiment: MIC measurement, Test Example 3 (MSSA, MRSA and sequential gyrA/grlA quinolone-resistant mutants); type: cell-based, Staphylococcus aureus; conditions: Staphylococcus aureus
# Description: That is, the first-step quinolone-resistant mutants are bacterial strains which are the same as their parent strains (clinical isolates) except that the genes shown in the corresponding parts of Table 1-1 are mutated. The second-step quinolone-resistant mutants are bacterial strains which are the same as the first-step quinolone-resistant mutants except that the genes shown in the corresponding parts of Table 1-1 are further mutated. The third-step quinolone-resistant mutants are bacterial strains which are the same as the second-step quinolone-resistant mutants except that the genes shown in the corresponding parts of Table 1-1 are further mutated. The fourth-step quinolone-resistant strain is a bacterial strain which is the same as the third-step quinolone-resistant mutant bacteria except that the gene shown in the corresponding part of Table 1-1 is further mutated.
# as §1, §2, §3, §4
# [2] = test system: MRSA, CA-MRSA and MSSA of Staphylococcus aureus; experiment: MIC measurement, Test Example 4 (MRSA, CA-MRSA and MSSA strains); type: cell-based; conditions: Staphylococcus aureus
# How it was run: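 S. aureus strains (FDA209P control) grown overnight in TSB at 37° C, resuspended in CAMHB, adjusted to A578 0.3 and diluted 500-fold. Equal volume added to CAMHB with serial compound concentrations, incubated statically overnight at 37° C. MIC read visually as lowest concentration without turbidity.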
# [3] = E. faecalis 36-15672, quinolone-susceptible enterococci
# [4] = E. faecalis 36-15673, quinolone-susceptible enterococci
# [5] = E. faecalis 36-15678, quinolone-susceptible enterococci
# [6] = E. faecalis 36-15686, quinolone-resistant enterococci
# [7] = E. faecalis 36-15688, quinolone-susceptible enterococci
# [8] = E. faecalis 36-15694, quinolone-resistant enterococci
# [9] = E. faecalis 36-15696, quinolone-susceptible enterococci
# [10] = E. faecalis 36-15703, quinolone-resistant enterococci
# [11] = E. faecalis 36-15716, quinolone-resistant enterococci
# [12] = E. faecalis 36-15718, quinolone-susceptible enterococci
# [13] = E. faecalis 36-15720, quinolone-susceptible enterococci
# [14] = E. faecalis 36-15722, quinolone-resistant enterococci
# [15] = E. faecalis 36-15726, quinolone-resistant enterococci
# [16] = E. faecalis 36-15730, quinolone-susceptible enterococci
# [17] = E. faecalis 36-15736, quinolone-susceptible enterococci
# [18] = E. faecalis 36-15741, quinolone-susceptible enterococci
# [19] = NCTC 12201 / VRE, E. faecalis NCTC12201, vancomycin-resistant (VRE), quinolone-susceptible enterococci
# [20] = NCTC 12203 / VRE, E. faecalis NCTC12203, vancomycin-resistant (VRE), quinolone-susceptible enterococci
# [21] = FDA209P / MRSA / MSSA, FDA209P (MSSA), control, read-out: MIC
# [22] = MR5867 (MRSA), clinical isolate parent strain, no mutation
# [23] = MS5935-1, first-step quinolone-resistant mutant, grlA S80F
# [24] = MS5952-1, first-step quinolone-resistant mutant, grlA S80Y
# [25] = ATCC 29213 / MRSA / MSSA, ATCC 29213, MSSA
# [26] = FDA209P / MRSA / MSSA, FDA209P, MSSA
# [27] = MRSA / MSSA / NCTC 8325, NCTC 8325, MSSA
# [28] = MRSA / MSSA / USA300, USA300 FPR3757, CA-MRSA
smiles,measurement,setting,value
"Cc1cc(=O)n2c3c(c4c(cc13)c(CO)cc(=O)n4C)OC2 [NM, nybomycin]",MIC,"VRSA clinical isolates; VRS1, VRSA, Michigan",0.125 µg/mL
same,MIC,"VRSA clinical isolates; VRS2, VRSA, Pennsylvania",0.25 µg/mL
same,MIC,"VRSA clinical isolates; VRS3, VRSA, New York",0.125 µg/mL
same,MIC,"VRSA clinical isolates; VRS4, VRSA, New York",0.125 µg/mL
same,MIC,"VRSA clinical isolates; VRS5, VRSA, Michigan",≤ 0.063 µg/mL
same,MIC,"VRSA clinical isolates; VRS6, VRSA, Michigan",≤ 0.063 µg/mL
same,MIC,"VRSA clinical isolates; VRS7, VRSA, Michigan",0.5 µg/mL
same,MIC,Enterococcus faecalis; [3],> 64 µg/mL
same,MIC,Enterococcus faecalis; [4],> 64 µg/mL
same,MIC,Enterococcus faecalis; [5],> 64 µg/mL
same,MIC,Enterococcus faecalis; [6],0.5 µg/mL
same,MIC,Enterococcus faecalis; [7],> 64 µg/mL
same,MIC,Enterococcus faecalis; [8],1 µg/mL
same,MIC,Enterococcus faecalis; [9],> 64 µg/mL
same,MIC,Enterococcus faecalis; [10],2 µg/mL
same,MIC,Enterococcus faecalis; [11],1 µg/mL
same,MIC,Enterococcus faecalis; [12],32 µg/mL
same,MIC,Enterococcus faecalis; [13],> 64 µg/mL
same,MIC,Enterococcus faecalis; [14],1 µg/mL
same,MIC,Enterococcus faecalis; [15],0.5 µg/mL
same,MIC,Enterococcus faecalis; [16],> 64 µg/mL
same,MIC,Enterococcus faecalis; [17],> 64 µg/mL
same,MIC,Enterococcus faecalis; [18],> 64 µg/mL
same,MIC,Enterococcus faecalis; [19],8 µg/mL
same,MIC,Enterococcus faecalis; [20],16 µg/mL
same,"antibacterial activity, comparison between NM and DNM",Enterococcus faecalis; against enterococci,higher antibacterial activity against enterococci than DNM
same,MIC,[1]; [21],> 64 µg/mL
same,MIC,[1]; [22],> 64 µg/mL
same,MIC,"[1]; MR5867-1, first-step quinolone-resistant mutant, grlA E84K",> 64 µg/mL
same,MIC,"[1]; MS5935 (MSSA), clinical isolate parent strain, no mutation, read-out: MIC",> 64 µg/mL
same,MIC,[1]; [23],> 64 µg/mL
same,MIC,"[1]; MS5952 (MSSA), clinical isolate parent strain, no mutation, read-out: MIC",> 64 µg/mL
same,MIC,[1]; [24],> 64 µg/mL
same,MIC,[2]; [25],64 µg/mL
same,MIC,"[2]; COL, MRSA",> 64 µg/mL
same,MIC,[2]; [26],64 µg/mL
same,MIC,"[2]; ISA12-1, MRSA",> 64 µg/mL
same,MIC,"[2]; ISA12-2, MRSA",> 64 µg/mL
same,MIC,"[2]; ISA35-1, MRSA",> 64 µg/mL
same,MIC,"[2]; ISA37-1, MSSA",> 64 µg/mL
same,MIC,"[2]; ISA49-1, MSSA",> 64 µg/mL
same,MIC,"[2]; ISA51-1, MSSA",> 64 µg/mL
same,MIC,"[2]; ISA56-3, MRSA",> 64 µg/mL
same,MIC,"[2]; ISA58-1, MRSA",16 µg/mL
same,MIC,"[2]; ISA62-1, MRSA",> 64 µg/mL
same,MIC,"[2]; ISA73-1, MSSA",> 64 µg/mL
same,MIC,"[2]; KBSA32, MRSA",> 64 µg/mL
same,MIC,"[2]; KBSA34, MRSA",> 64 µg/mL
same,MIC,"[2]; KBSA72, MRSA",≤ 0.063 µg/mL
same,MIC,"[2]; KBSA96, MRSA",0.125 µg/mL
same,MIC,"[2]; KBSA171, MRSA",0.25 µg/mL
same,MIC,"[2]; KSA24, MRSA",0.5 µg/mL
same,MIC,"[2]; KSA31, MRSA",1 µg/mL
same,MIC,"[2]; KSA36, MRSA",≤ 0.063 µg/mL
same,MIC,[2]; [27],> 64 µg/mL
same,MIC,[2]; [28],0.25 µg/mL
same,MIC,"[2]; MW2, CA-MRSA",64 µg/mL
same,MIC,"[2]; N315, MRSA",64 µg/mL
"NC1CCN(c2nc3c(cc2F)c(=O)c(C(=O)O)cn3-c2ccc(F)cc2F)C1 (stereo not drawn) [TFLX, tosufloxacin tosylate]",MIC,"VRSA clinical isolates; VRS1, VRSA, Michigan",4 µg/mL
same,MIC,"VRSA clinical isolates; VRS2, VRSA, Pennsylvania",> 128 µg/mL
same,MIC,"VRSA clinical isolates; VRS3, VRSA, New York",> 128 µg/mL
same,MIC,"VRSA clinical isolates; VRS4, VRSA, New York",> 128 µg/mL
same,MIC,"VRSA clinical isolates; VRS5, VRSA, Michigan",> 128 µg/mL
same,MIC,"VRSA clinical isolates; VRS6, VRSA, Michigan",> 128 µg/mL
same,MIC,"VRSA clinical isolates; VRS7, VRSA, Michigan",4 µg/mL
same,MIC,Enterococcus faecalis; [3],0.5 µg/mL
same,MIC,Enterococcus faecalis; [4],0.5 µg/mL
same,MIC,Enterococcus faecalis; [5],0.5 µg/mL
same,MIC,Enterococcus faecalis; [6],> 128 µg/mL
same,MIC,Enterococcus faecalis; [7],≤ 0.063 µg/mL
same,MIC,Enterococcus faecalis; [8],> 128 µg/mL
same,MIC,Enterococcus faecalis; [9],0.25 µg/mL
same,MIC,Enterococcus faecalis; [10],> 128 µg/mL
same,MIC,Enterococcus faecalis; [11],> 128 µg/mL
same,MIC,Enterococcus faecalis; [12],0.25 µg/mL
same,MIC,Enterococcus faecalis; [13],0.5 µg/mL
same,MIC,Enterococcus faecalis; [14],> 128 µg/mL
same,MIC,Enterococcus faecalis; [15],> 128 µg/mL
same,MIC,Enterococcus faecalis; [16],0.5 µg/mL
same,MIC,Enterococcus faecalis; [17],0.25 µg/mL
same,MIC,Enterococcus faecalis; [18],0.5 µg/mL
same,MIC,Enterococcus faecalis; [19],0.25 µg/mL
same,MIC,Enterococcus faecalis; [20],0.5 µg/mL
same,MIC,[1]; [21],≤ 0.063 µg/mL
same,MIC,[1]; [22],≤ 0.063 µg/mL
same,MIC,"[1]; MR5867-3, third-step mutant, further grlA S80F",> 128 µg/mL
same,MIC,"[1]; MR5867-4, fourth-step mutant, further gyrA E88K",> 128 µg/mL
same,MIC,[1]; [23],1 µg/mL
same,MIC,"[1]; MS5935-2, second-step mutant, further gyrA S84L",64 µg/mL
same,MIC,"[1]; MS5935-3, third-step mutant, further grlA E84K",> 128 µg/mL
same,MIC,[1]; [24],2 µg/mL
same,MIC,"[1]; MS5952-3, third-step mutant, further grlA A116V",> 128 µg/mL
same,MIC,[2]; [25],≤ 0.063 µg/mL
same,MIC,"[2]; COL, MRSA",0.125 µg/mL
same,MIC,[2]; [26],≤ 0.063 µg/mL
same,MIC,"[2]; ISA12-1, MRSA",≤ 0.063 µg/mL
same,MIC,"[2]; ISA12-2, MRSA",≤ 0.063 µg/mL
same,MIC,"[2]; ISA35-1, MRSA",0.25 µg/mL
same,MIC,"[2]; ISA37-1, MSSA",≤ 0.063 µg/mL
same,MIC,"[2]; ISA49-1, MSSA",≤ 0.063 µg/mL
same,MIC,"[2]; ISA51-1, MSSA",≤ 0.063 µg/mL
same,MIC,"[2]; ISA56-3, MRSA",≤ 0.063 µg/mL
same,MIC,"[2]; ISA58-1, MRSA",0.5 µg/mL
same,MIC,"[2]; ISA62-1, MRSA",≤ 0.063 µg/mL
same,MIC,"[2]; ISA73-1, MSSA",≤ 0.063 µg/mL
same,MIC,"[2]; KBSA32, MRSA",≤ 0.063 µg/mL
same,MIC,"[2]; KBSA34, MRSA",≤ 0.063 µg/mL
same,MIC,"[2]; KBSA72, MRSA",> 128 µg/mL
same,MIC,"[2]; KBSA96, MRSA",16 µg/mL
same,MIC,"[2]; KBSA171, MRSA",8 µg/mL
same,MIC,"[2]; KSA24, MRSA",8 µg/mL
same,MIC,"[2]; KSA31, MRSA",4 µg/mL
same,MIC,"[2]; KSA36, MRSA",> 128 µg/mL
same,MIC,[2]; [27],≤ 0.063 µg/mL
same,MIC,[2]; [28],16 µg/mL
same,MIC,"[2]; MW2, CA-MRSA",≤ 0.063 µg/mL
same,MIC,"[2]; N315, MRSA",≤ 0.063 µg/mL
